pIC50: −log10 of the molar value.

Experiment [1] has as its target T1, Human immunodeficiency virus type 1 protease (Human immunodeficiency virus 1, UniProt Q72874). The experiment can be described thus: Inhibitory concentration against Protease.
For experiment [2], the target named is T1, Human immunodeficiency virus type 1 protease. The experiment can be described thus: Evaluated for inhibition of Protease after CLND/MS correction from the crude mixture.
For experiment [3] the target is unchanged. The experiment can be described thus: Evaluated for inhibition of Protease after resynthesis and purification.

For `CNC1C(=O)OC(CCc2ccccc2)(C(=O)NCC2CCCO2)C1=O` (configuration not stated) [3-Hydroxy-4-methylamino-5-oxo-2-phenethyl-2,5-dihydro-furan-2-carboxylic acid (tetrahydro-furan-2-ylmethyl)-amide], in experiment [1], the negative-log IC50 (pIC50) was < 3.00. Same read-out and setting: the value for `COc1cc(CC2C(=O)OC(CCc3ccccc3)(C(=O)NCC(C)(C)C)C2=O)cc(OC)c1OC` (configuration not stated) [3-Hydroxy-5-oxo-2-phenethyl-4-(3,4,5-trimethoxy-benzyl)-2,5-dihydro-furan-2-carboxylic acid (2,2-dimethyl-propyl)-amide] was < 3.00.

Regarding `COc1cc(CC2C(=O)OC(C)(C(=O)NC3CC3)C2=O)cc(OC)c1OC` (configuration not stated) [3-Hydroxy-2-methyl-5-oxo-4-(3,4,5-trimethoxy-benzyl)-2,5-dihydro-furan-2-carboxylic acid cyclopropylamide], in experiment [1], the pIC50 is < 3.00.

Take `COc1cc(CC2C(=O)OC(C)(C(=O)NC(C)(C)C)C2=O)cc(OC)c1OC` (configuration not stated) [3-Hydroxy-2-methyl-5-oxo-4-(3,4,5-trimethoxy-benzyl)-2,5-dihydro-furan-2-carboxylic acid tert-butylamide]: the pIC50 in experiment [1] is < 3.00. As for `C[C@@H](c1ccccc1)C1C(=O)O[C@](CCc2ccccc2)(C(=O)NCc2ccc(C(C)(C)C)cc2)C1=O` (some centres not stated), the pIC50 in experiment [1] is 4.08; in experiment [2], 5.92; in experiment [3], 5.34.

As usually defined, the pIC50 is the IC50 on a negative log10 scale, so that one unit is a factor of ten.

These data come from BindingDB's records for doi:10.1016/j.bmcl.2004.04.026 (Morphochem, 2004).
